This passage reports CC50 and IC50 results from ChEMBL document CHEMBL1128330, “Anti-human immunodeficiency virus and anti-hepatitis-B virus activities and toxicities of the enantiomers of 2'-deoxy-3'-oxa-4'-thiocytidine and their 5-fluoro analogues in vitro” (J Med Chem, 1995).

Holding throughout (conditions): Homo sapiens
Assay [1] has as its system U-937. Description: Cytotoxic concentration against HIV-1 infected U937 cell lines. It counts as functional.
The test system of assay [2] is CCRF-CEM. In words: Cytotoxic concentration against HIV-1 infected CEM cell lines. The format is functional.
In assay [3] the test system is Jurkat. Description: Inhibitory concentration against HIV-1 infected Jurkat cell lines. It counts as functional, cell-based.
Assay [4] has as its system U-937. Description: Inhibitory concentration against HIV-1 infected U937 cell lines. The format is functional, cell-based.
Assay [5] in a line: Drug concentration which inhibits 50% of growth of cord blood mononuclear cells (CBMCs). The format is functional.
The subject of assay [6] is Jurkat. In words: Cytotoxic concentration against HIV-1 infected Jurkat cell lines. The format is functional.
The test system of assay [7] is MT4. In words: Cytotoxic concentration against HIV-1 infected MT-4 cell lines. The format is functional.
For assay [8], the system named is H9. In words: Cytotoxic concentration against HIV-1 infected H9 cell lines. The format is functional.
Assay [9] relates to H9. In words: Inhibitory concentration against HIV-1 infected H9 cell lines. The format is functional, cell-based.
The subject of assay [10] is MT4. In words: Inhibitory concentration against HIV-1 infected MT-4 cell lines. The format is functional, cell-based.
The subject of assay [11] is CCRF-CEM. In words: Inhibitory concentration against HIV-1 infected CEM cell lines. It counts as functional, cell-based.

For `Cc1cn([C@H]2C[C@H](N=[N+]=[N-])[C@@H](CO)O2)c(=O)[nH]c1=O` [ZIDOVUDINE], the CC50 (commonly the concentration that lowers cell viability or growth by half) in [1] was 110 µM; in assay [2], 500 µM; in [5], 45 µM; in assay [6], more than 500 µM; in assay [7], 110 µM; in assay [8] it was 200 µM. The IC50 (as a rule, the concentration needed to halve the response being measured) in [3] was 0.01 µM; in [4], 0.04 µM; in assay [9] it was 0.07 µM; in assay [10], 0.005 µM; in [11] it was 0.01 µM.
